{"source": "patent US11571400B2", "about": "“ACAT1 inhibitors for treating cancer” (Shanghai Institutes for Biological Sciences, Chinese …, priority 2016, dated 2023)", "key": {"CD8+ T cells": {"test_system": "CD8+ T cells", "assay": "Cytokine and cytolytic granule production of CD8+ T cells stimulated with plate-bound anti-CD3/CD28", "assay_type": "cell-based, mouse", "conditions": "pretreated with compound vs vehicle (DMSO); stimulated with 5 μg/ml plate-bound anti-CD3/CD28", "experimental": "Peripheral T cells were isolated from mouse spleen and draining lymph nodes by a CD8^+ or CD4^+ T cell negative selection kit (Stem cell). To analyse the tumour-infiltrating T cells, tumours were first digested by collagenase IV (sigma), and tumour-infiltrating leukocytes were isolated by 40-70% percoll (GE) gradient centrifugation. To measure the effector function of CD8^+ T cells, the isolated cells were first stimulated with 1 μM ionomycin and 50 ng/ml PMA for 4 hours in the presence of 5 μg/ml BFA, and then stained with PERCP-α-CD8a. Next, cells were fixed with 4% PFA and stained with FITC-α-Granzyme B, APC-α-IFNγ and PE-α-TNFα. In general, to gate the cytokine or granule producing cells, T cells without stimulation or stained with isotype control antibody were used as negative controls. This gating strategy is applicable for most of the flow cytometric analyses. To detect the MDSCs (myeloid-derived suppressor cells) in the tumour, the percoll isolated leukocyte were stained with α-CD45, α-CD11b and α-Ly6G (Gr1), the CD45^+ population was gated, after which the MDSC population (CD11b^+ Gr1^+) in CD45^+ were gated.\n(§1) CD8^+ T cells were pretreated with vehicle (dimethylsulfoxide, DMSO), CP-113,818 or K604. Then the cells were stimulated with 5 μg ml^−1 plate-bound anti-CD3/CD28, and cytokine and cytolytic granule production was studied. Cytotoxicity of OT-I CTLs pretreated with CP-113,818 or K604 or vehicle was also studied."}, "OT-I CTLs": {"test_system": "OT-I CTLs", "assay": "CD8+ T-cell (OT-I CTL) cytotoxicity against antigen-pulsed EL-4 cells, LDH release", "assay_type": "cell-based, mouse", "conditions": "for cytotoxicity of CD8+ T cells: OT-I CTLs pretreated with compound vs vehicle", "experimental": "To generate mature Cytotoxic T lymphocytes (CTLs), splenocytes isolated from Acat1^CKO-OT-I mice or WT OT-I mice were stimulated with OVA257-264 (N4) for 3 days in the presence of 10 ng/ml IL-2. Cells were centrifuged and cultured in fresh medium containing 10 ng/ml IL-2 for 2 more days, after which most of the cells in the culture were CTLs. To measure CD8^+ T-cell cytotoxicity, EL-4 cells were pulsed with 2 nM antigenic peptide (N4, A2, T4, G4, R4 or Catnb) for 30 minutes. After washing EL-4 cells and CTLs three times with PBS, we mixed CTLs and antigen-pulsed EL-4 cells (1×10^5) in the killing medium (phenol free-RPMI 1640, 2% FBS), at the ratio of 1:1, 1:2 and 1:5, respectively. After 4 hours, the cytotoxic efficiency was measured by quantifying the release of endogenous lactate dehydrogenase (LDH) from EL-4 cells using a CytoTox 96 Non-Radioactive Cytotoxicity kit (Promega).\nas §1\nTo study ACAT1 inhibitors in cancer immunotherapies in mice, melanoma-bearing mice were treated with a potent ACAT-1 inhibitor, avasimibe (Ava), or DMSO control, and tumour size and survival were studied. A combined therapy (avasimibe and anti-PD-1) or monotherapies (avasimibe or anti-PD-1) were also studied and compared in treating melanoma. In a lung cancer model, Lewis lung carcinoma-bearing mice were treated with avasimibe or DMSO control, and tumour multiplicity and survival were studied. Cytokine productions of stimulated human (h) CD8^+ T cells pretreated with avasimibe, CP-113,818, or DMSO. CTL cytotoxicity after avasimibe treatment was measured by the LDH assay. OT-I CTLs were pretreated with avasimibe or vehicle for 6 h and then incubated with EL-4 cells pulsed with OVA257-264 peptide for 4 h."}, "[1]": {"conditions": "cited from earlier work"}, "[2]": {"test_system": "Lewis lung carcinoma (LLC)", "assay": "Lewis lung carcinoma (LLC) model, avasimibe therapy", "assay_type": "in vivo, mouse", "conditions": "avasimibe 15 mg/kg intraperitoneally every 3 days, Day 10 to Day 35, vs DMSO control", "experimental": "(§2) A combined therapy (avasimibe and anti-PD-1) or monotherapies (avasimibe or anti-PD-1) were also studied and compared in treating melanoma. In a lung cancer model, Lewis lung carcinoma-bearing mice were treated with avasimibe or DMSO control, and tumour multiplicity and survival were studied. […] CTL cytotoxicity after avasimibe treatment was measured by the LDH assay. OT-I CTLs were pretreated with avasimibe or vehicle for 6 h and then incubated with EL-4 cells pulsed with OVA257-264 peptide for 4 h."}, "human CD8+ T cells": {"test_system": "human CD8+ T cells", "assay": "Human CD8+ T-cell cytokine production", "assay_type": "cell-based", "conditions": "PBMCs pretreated 12 hours, then plate-bound α-CD3/α-CD28 for 24 hours; vs DMSO", "experimental": "Human peripheral blood mononuclear cells (PBMCs) from healthy donators were stimulated with 5 μg/ml PHA (Sigma) for 2 days and then rested for 1 day. Cells were pretreated with vehicle (DMSO), CP113, 818 or avasimibe for 12 hours and then stimulated with plate-bound α-CD3 (5 μg/ml) and α-CD28 (5 μg/ml) antibodies for 24 hours. Intracellular staining and flow cytometry were used to assess cytokines production of CD8^+ T cells. […] A combined therapy (avasimibe and anti-PD-1) or monotherapies (avasimibe or anti-PD-1) were also studied and compared in treating melanoma. In a lung cancer model, Lewis lung carcinoma-bearing mice were treated with avasimibe or DMSO control, and tumour multiplicity and survival were studied. […] CTL cytotoxicity after avasimibe treatment was measured by the LDH assay. OT-I CTLs were pretreated with avasimibe or vehicle for 6 h and then incubated with EL-4 cells pulsed with OVA257-264 peptide for 4 h."}, "B16F10 melanoma": {"test_system": "B16F10 melanoma", "assay": "Skin melanoma mouse model (B16F10), avasimibe therapy", "assay_type": "in vivo", "conditions": "melanoma-bearing mice; avasimibe 15 mg/kg intraperitoneally every 2 days from Day 10, vs DMSO control", "experimental": "as §2"}}}
{"smiles": "CCN(CC)CCO[C@H]1CC[C@@]2(C)C(=CC[C@@H]3[C@@H]2CC[C@]2(C)C(=O)CC[C@@H]32)C1", "note": "[U18666A]", "values": [{"measurement": "cytolytic granule and cytokine productions of CD8+ T cells", "setting": "CD8+ T cells", "result": "significantly decreased"}]}
{"smiles": "CCCCCCCC[C@H](SCCCCCC)C(=O)Nc1c(SC)cc(C)nc1SC", "note": "[CP-113,818, (S)—N-(2,4-Bis(methylthio)-6-methylpyridin-3-yl)-2-(hexylthio)decanoic acid amide]", "values": [{"measurement": "cytolytic granule and cytokine productions of CD8+ T cells", "setting": "CD8+ T cells", "result": "augmented"}, {"measurement": "cytotoxicity of CD8+ T cells", "setting": "OT-I CTLs", "result": "augmented"}]}
{"smiles": "CC[C@H](C)C(=O)O[C@H]1C[C@@H](C)C=C2C=C[C@H](C)[C@H](CC[C@@H]3C[C@@H](O)CC(=O)O3)[C@H]21", "note": "[Lovastatin]", "values": [{"measurement": "cytolytic granule and cytokine productions of CD8+ T cells", "setting": "CD8+ T cells", "result": "significantly decreased"}]}
{"smiles": "CC(C)c1cc(C(C)C)c(CC(=O)NS(=O)(=O)Oc2c(C(C)C)cccc2C(C)C)c(C(C)C)c1", "note": "[avasimibe, [2,6-di(propan-2-yl)phenyl] N-[2-[2,4,6-tri(propan-2-yl)phenyl]acetyl]sulfamate]", "values": [{"measurement": "well tolerated dose", "setting": "[1]; adult human subjects, four times daily (i.e., 3000 mg/day), Kharbanda et al (2005)", "result": "≥ 750", "unit": "mg"}, {"measurement": "human safety profile", "setting": "[1]; clinical trials for treating atherosclerosis", "result": "good human safety profile"}, {"measurement": "antitumor effect in Lewis lung carcinoma (tumour multiplicity and survival)", "setting": "[2]", "result": "good antitumor effect"}, {"measurement": "effector function of mouse CD8+ T cells ex vivo", "setting": "OT-I CTLs; OT-I CTLs pretreated with avasimibe or vehicle for 6 h, EL-4 cells pulsed with OVA257-264 for 4 h, LDH assay", "result": "enhance"}, {"measurement": "cytokine production of human CD8+ T cells", "setting": "human CD8+ T cells", "result": "enhanced"}, {"measurement": "survival time", "setting": "B16F10 melanoma", "result": "prolonged"}, {"measurement": "tumour growth", "setting": "B16F10 melanoma", "result": "inhibited"}]}
{"smiles": "CSc1cc(C)nc(SC)c1NC(=O)CN1CCN(CCSc2nc3ccccc3[nH]2)CC1", "note": "[K604, 2-[4-[2-(benzimidazol-2-ylthio)ethyl]piperazin-1yl]-N-[2,4-bis(methylthio)-6-methyl-3-pyridyl]acetamide]", "values": [{"measurement": "cytolytic granule and cytokine productions of CD8+ T cells", "setting": "CD8+ T cells", "result": "augmented"}, {"measurement": "cytotoxicity of CD8+ T cells", "setting": "OT-I CTLs", "result": "augmented"}]}
